Data from US20240123079A1 (Seagen Inc., priority 2021, published 2024).

Experiments:
Assay type in all cases: cell-based
Karpas299 = experiment: Cancer cell direct cytotoxicity assay (CellTiter-Glo), Karpas299; details: Homo sapiens, KARPAS-299; Karpas299, 96 h, free compound; read-out: Compound X50
Method: (§1) Bystander activity of ADCs was evaluated using Renca cancer cells and THP1-Dual™ cells (InvivoGen) which contain an IRF-Lucia luciferase reporter. Cells were cultured in RPMI-1640 (Gibco) with 10% heat-inactivated fetal bovine serum, Pen-Strep (100 U/ml-100 μg/ml, Gibco), HEPES (10 mM, Gibco), sodium pyruvate (1 mM, Gibco), MEM non-essential amino acids (1×, Gibco), GlutaMAX (1×, Gibco), and beta-mercaptoethanol (55 μM, Gibco). Renca cells were plated in a 96-well flat bottom tissue culture-treated clear polystyrene plate (Corning Costar #3596) at 50,000 cells per well in 100 μL. On the day following the initial plating, 50,000 THP1-Dual™ cells were added to each well with the indicated concentration of ADC in a total volume of 200 μL. Supernatant was harvested at 48 hours post addition of the THP1-Dual™ cells. To measure Lucia reporter signal, 10 μL of supernatant was combined with 40 μL of QUANTI-Luc™ Luminescence assay reagent (Invivogen PN: rep-qlc1) in a 96-well clear flat bottom tissue culture-treated black polystyrene plate (Corning Costar PN: 3603) and read on a Perkin Elmer Envision plate reader. In some experiments, HEK 293T cells engineered to express a murine protein typically expressed by immune cells (target antigen C— an immune cell antigen) were plated as above instead of Renca tumor cells. Cancer Cell Direct Cytotoxicity Assay
(§2) Cancer cells were counted and plated in 40 μL complete growth media in 384-well, white-walled tissue culture treated plates (Corning). Cell plates were incubated at 37° C. and with 5% CO2 overnight to allow the cells to equilibrate. Stock solutions containing ADCs or free drugs were serially diluted in RPMI-1640+20% fetal bovine serum (FBS). 10 μL of each concentration were then added to each cell plate in duplicate. Cells were then incubated at 37° C. and with 5% CO2 for 96 hours, upon which, the cell plates were removed from the incubator and allowed to cool to room temperature for 30 minutes prior to analysis. […] The luminescence of the samples was measured using an EnVision Multimode plate reader (Perkin Elmer, Waltham, MA). […]

MOLM-13 = experiment: Cancer cell direct cytotoxicity assay (CellTiter-Glo), MOLM-13; details: Homo sapiens; MOLM-13, 96 h, free compound; read-out: Compound X50
Method: as §1, §2

MDAMB231 = experiment: Cancer cell direct cytotoxicity assay (CellTiter-Glo), MDAMB231; details: Homo sapiens, MDA-MB-231; MDAMB231, 96 h, free compound; read-out: Compound X50
Method: as §1, §2

A2058 = experiment: Cancer cell direct cytotoxicity assay (CellTiter-Glo), A2058; details: Homo sapiens; A2058, 96 h, free compound; read-out: Compound X50
Method: as §1, §2

786-O = experiment: Cancer cell direct cytotoxicity assay (CellTiter-Glo), 786-O; details: Homo sapiens, 786-0, 96 h, free compound, read-out: Compound X50
Method: as §1, §2

L540cy = experiment: Cancer cell direct cytotoxicity assay (CellTiter-Glo), L540cy; details: Homo sapiens, 96 h, free compound, read-out: Compound X50
Method: as §1, §2

Structure (SMILES) | IC50 (Karpas299) [nM] | IC50 (MOLM-13) [nM] | IC50 (MDAMB231) [nM] | IC50 (A2058) [nM] | IC50 (786-O) [nM] | IC50 (L540cy) [nM]
CCn1nc(C)cc1C(=O)Nc1nc2cc(C(N)=O)cc(O)c2n1C/C=C/Cn1c(NC(=O)c2cc(C)nn2CC)nc2cc(C(N)=O)cc(OC)c21 [Compound 1, (E)-1-(4-(5-carbamoyl-2-(1-ethyl-3-methyl-1H-pyrazole-5-carboxamido)-7-hydroxy-1H-benzo[d]imidazol-1-yl)but-2-en-1-yl)-2-(1-ethyl-3-methyl-1H-pyrazole-5-carboxamido)-7-methoxy-1H-benzo[d]imidazole-5-carboxamide] | > 1000 | 42 | > 1000 | > 1000 | > 1000 | 31
CCn1nc(C)cc1C(=O)Nc1nc2cc(C(N)=O)cc(OC)c2n1C/C=C/Cn1c(NC(=O)c2cc(C)nn2CC)nc2cc(C(N)=O)cc(OCCCNC)c21 [Compound 12a] | > 1000 | 87 | > 1000 | > 1000 | > 1000 | 83
